Source: US12233081B2, “Hygromycin a compounds and methods of treating spirochete diseases” (priority 2018, dated 2025)

Tests used:
gut microbiome = gut microbiome 16S rRNA sequencing of stool of infected, treated mice; details: subcutaneous 156 mg/kg every 12 hours for 5 days
B. burgdorferi N40 = assay: C3H mice infected with Borrelia burgdorferi, cell counts in skin tissue; format: in vivo; details: 156 mg/kg IP injection, 5 days of dosing
Description: C3H mice (Charles River Laboratories) are used in classical Lyme disease infection model. Mice were rested for more than 1 day after delivery before infected with 10^5 B. burgdorferi N40 cells by subcutaneous injection. Infection was established for 3 weeks. 100 μl of saline, ceftriaxone or hygromycin A was administered by IP injection. Compounds of the invention can also be tested for efficacy as described herein.
Ceftriaxone (USP grade) was purchased from Sigma-Aldrich. Saline was purchased from Baxter Healthcare. Ceftriaxone powder was dissolved into saline to 31.2 mg/ml solution. Hygromycin A stock solution at 200 mg/ml was diluted into saline to make 50 mg/ml (250 mg/kg), 15 mg/ml (75 mg/kg), 14 mg/ml (70 mg/kg), 10 mg/ml (50 mg/kg) and 5 mg/ml (25 mg/kg) solutions.
In the B. burgdorferi mice infection model, skin is the tissue with highest bacterial burden. After sacrificing mice 2 days after 5 days of dosing, we took 100 mg skin tissue from mouse ear, homogenized the tissue and plated on BSK-II semi-agar plates for cell number counts. No colony appearing on the plates is considered as clearance of the infection.

## CO/N=C(\C(=O)N[C@@H]1C(=O)N2C(C(=O)O)=C(CSc3nc(=O)c(=O)[nH]n3C)CS[C@H]12)c1csc(N)n1 [Ceftriaxone]
Gut microbiome
  Acholeplasmataceae change in percent relative abundance: 0.213%
  Aerococcaceae change in percent relative abundance: 0.000%
  Anaerolineaceae change in percent relative abundance: 0.000%
  Anaeroplasmataceae change in percent relative abundance: 0.000%
  Anaplasmataceae change in percent relative abundance: 0.001%
  Aspergillaceae change in percent relative abundance: 0.000%
  Asteraceae change in percent relative abundance: 0.011%
  Bacillaceae change in percent relative abundance: 0.055%
  Bacillales change in percent relative abundance: −0.174%
  Bacteroidaceae change in percent relative abundance: −26.593%
  Bifidobacteriaceae change in percent relative abundance: 0.000%
  Brucellaceae change in percent relative abundance: 0.000%
  Camobacteriaceae change in percent relative abundance: 0.000%
  Chitinophagaceae change in percent relative abundance: 0.000%
  Christensenellaceae change in percent relative abundance: 0.000%
  Clostridiaceae change in percent relative abundance: −10.423%
  Clostridiales change in percent relative abundance: −0.174%
  Clostridiales family xi. incertae sedis change in percent relative abundance: −0.050%
  Clostridiales family xiii. incertae sedis change in percent relative abundance: −0.015%
  Coriobacteriaceae change in percent relative abundance: −0.049%
  Corynebacteriaceae change in percent relative abundance: 0.002%
  Cytophagaceae change in percent relative abundance: 0.000%
  Deferribacteraceae change in percent relative abundance: −1.344%
  Defluviitaleaceae change in percent relative abundance: −0.002%
  Desulfobacteraceae change in percent relative abundance: 0.000%
  Enterobacteriaceae change in percent relative abundance: −0.487%
  Enterococcaceae change in percent relative abundance: 77.7%
  Erysipelotrichaceae change in percent relative abundance: −1.012%
  Eubacteriaceae change in percent relative abundance: −3.445%
  Fabaceae change in percent relative abundance: 0.003%
  Flavobacteriaceae change in percent relative abundance: 0.000%
  Francisellaceae change in percent relative abundance: 0.000%
  Fusobacteriaceae change in percent relative abundance: 0.001%
  Gammaproteobacteria change in percent relative abundance: −0.008%
  Gloeobacteraceae change in percent relative abundance: −0.018%
  Gracilibacteraceae change in percent relative abundance: −0.087%
  Halomonadaceae change in percent relative abundance: 0.000%
  Hylidae change in percent relative abundance: 0.001%
  Kopriimonadaceae change in percent relative abundance: 0.000%
  Lachnospiraceae change in percent relative abundance: −11.193%
  Lactobacillaceae change in percent relative abundance: −1.712%
  Leuconostocaceae change in percent relative abundance: 0.015%
  Methylobacteriaceae change in percent relative abundance: 0.001%
  Microbacteriaceae change in percent relative abundance: 0.001%
  Mucoraceae change in percent relative abundance: 0.000%
  Nostocaceae change in percent relative abundance: 0.002%
  Onagraceae change in percent relative abundance: 0.000%
  Oscillatoriales change in percent relative abundance: 0.090%
  Oscillospiraceae change in percent relative abundance: −0.009%
  Paenibacillaceae change in percent relative abundance: 0.003%
  Pasteurellaceae change in percent relative abundance: 0.001%
  Pelobacteraceae change in percent relative abundance: 0.000%
  Peptococcaceae change in percent relative abundance: −0.602%
  Peptoniphilaceae change in percent relative abundance: 0.001%
  Peptostreptococcaceae change in percent relative abundance: −0.185%
  Physalacriaceae change in percent relative abundance: 0.000%
  Poaceae change in percent relative abundance: 0.820%
  Polyangiaceae change in percent relative abundance: 0.001%
  Porphyromonadaceae change in percent relative abundance: −24.493%
  Prevotellaceae change in percent relative abundance: −0.417%
  Pseudomonadaceae change in percent relative abundance: 0.002%
  Rhizobiaceae change in percent relative abundance: 0.001%
  Rhodobacteraceae change in percent relative abundance: 0.000%
  Rikenellaceae change in percent relative abundance: −6.750%
  Ruminococcaceae change in percent relative abundance: −2.217%
  Sphingomonadaceae change in percent relative abundance: 0.000%
  Spirochaetaceae change in percent relative abundance: −0.055%
  Spiroplasmataceae change in percent relative abundance: −0.051%
  Staphylococcaceae change in percent relative abundance: 0.047%
  Streptococcaceae change in percent relative abundance: 12.672%
  Thermoanaerobacteraceae change in percent relative abundance: −0.033%
  Veillonellaceae change in percent relative abundance: 0.000%
  Verrucomicrobiaceae change in percent relative abundance: −0.004%
  Xanthomonadaceae change in percent relative abundance: 0.001%
  all other commensal taxa such as Bacteroidaceae and Lactobacillaceae: depleted
  mice with Enterococcaceae blooms: 5/5
Gut microbiome; listed as Cef
  Enterococcaceae change in percent relative abundance: 77.719%
B. burgdorferi N40
  # of B. burgdorferi cells in 100 mg skin tissue: <1
